# Data taken from ChEMBL document CHEMBL1201862, “PubChem BioAssay data set” (2004).
# Active and inactive are the calls of the source.
# Tests used:
# Caspase-3 = target: T1, Caspase-3 (Homo sapiens, UniProt P42574); assay type: functional;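 note: Dose-response selectivity test against caspase-3 for candidate inhibitors of sentrin-specific proteases (SENPs)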
# T1 sequence (P42574 whole entry): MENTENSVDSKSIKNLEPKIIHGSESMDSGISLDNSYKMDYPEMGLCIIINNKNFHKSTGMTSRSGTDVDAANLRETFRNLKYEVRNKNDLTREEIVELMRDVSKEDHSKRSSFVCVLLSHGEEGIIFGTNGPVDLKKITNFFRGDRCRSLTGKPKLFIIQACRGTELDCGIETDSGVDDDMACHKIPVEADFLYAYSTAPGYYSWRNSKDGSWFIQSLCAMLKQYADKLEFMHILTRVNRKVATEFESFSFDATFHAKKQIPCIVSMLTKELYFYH
# [1] = target: T2, Sentrin-specific protease 7 (Homo sapiens, UniProt Q9BQF6); assay type: functional;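 note: Luminescence-based dose-response confirmation of ultra-high-throughput screening hits, measuring inhibition of SENP7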
# T2 sequence (Q9BQF6 whole entry): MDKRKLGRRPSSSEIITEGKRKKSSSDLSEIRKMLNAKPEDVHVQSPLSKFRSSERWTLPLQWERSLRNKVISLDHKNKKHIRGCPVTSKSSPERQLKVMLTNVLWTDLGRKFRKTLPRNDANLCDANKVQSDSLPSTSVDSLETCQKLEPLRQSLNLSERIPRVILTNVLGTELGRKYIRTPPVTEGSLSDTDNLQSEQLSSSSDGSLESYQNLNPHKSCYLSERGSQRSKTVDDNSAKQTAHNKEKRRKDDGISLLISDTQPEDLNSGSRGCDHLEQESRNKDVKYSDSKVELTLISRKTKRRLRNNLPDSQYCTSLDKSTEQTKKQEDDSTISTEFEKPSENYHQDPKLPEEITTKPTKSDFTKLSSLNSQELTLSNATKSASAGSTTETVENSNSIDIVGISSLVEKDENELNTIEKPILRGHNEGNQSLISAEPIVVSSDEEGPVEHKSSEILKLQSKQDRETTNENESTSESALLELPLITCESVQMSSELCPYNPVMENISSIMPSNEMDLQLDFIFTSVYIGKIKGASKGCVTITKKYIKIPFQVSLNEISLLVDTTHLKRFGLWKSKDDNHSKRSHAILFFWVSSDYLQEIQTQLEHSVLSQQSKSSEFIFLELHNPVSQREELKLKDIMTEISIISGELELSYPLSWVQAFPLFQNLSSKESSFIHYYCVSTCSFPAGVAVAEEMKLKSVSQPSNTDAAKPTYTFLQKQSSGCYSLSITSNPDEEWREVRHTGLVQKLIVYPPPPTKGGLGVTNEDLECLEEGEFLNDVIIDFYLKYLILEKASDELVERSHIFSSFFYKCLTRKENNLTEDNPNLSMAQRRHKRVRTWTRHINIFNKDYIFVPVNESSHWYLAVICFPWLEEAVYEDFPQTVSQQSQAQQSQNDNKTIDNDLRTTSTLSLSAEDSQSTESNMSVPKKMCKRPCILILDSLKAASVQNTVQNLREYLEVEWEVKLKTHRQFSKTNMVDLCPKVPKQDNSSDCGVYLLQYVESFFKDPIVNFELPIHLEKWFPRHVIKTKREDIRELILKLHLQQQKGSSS
# [2] = target: T3, Sentrin-specific protease 6 (Homo sapiens, UniProt Q9GZR1); assay type: functional;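 note: Luminescence-based dose-response confirmatory assay of SENP6 inhibition, following up an ultra-high-throughput screen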
# T3 sequence (Q9GZR1 whole entry): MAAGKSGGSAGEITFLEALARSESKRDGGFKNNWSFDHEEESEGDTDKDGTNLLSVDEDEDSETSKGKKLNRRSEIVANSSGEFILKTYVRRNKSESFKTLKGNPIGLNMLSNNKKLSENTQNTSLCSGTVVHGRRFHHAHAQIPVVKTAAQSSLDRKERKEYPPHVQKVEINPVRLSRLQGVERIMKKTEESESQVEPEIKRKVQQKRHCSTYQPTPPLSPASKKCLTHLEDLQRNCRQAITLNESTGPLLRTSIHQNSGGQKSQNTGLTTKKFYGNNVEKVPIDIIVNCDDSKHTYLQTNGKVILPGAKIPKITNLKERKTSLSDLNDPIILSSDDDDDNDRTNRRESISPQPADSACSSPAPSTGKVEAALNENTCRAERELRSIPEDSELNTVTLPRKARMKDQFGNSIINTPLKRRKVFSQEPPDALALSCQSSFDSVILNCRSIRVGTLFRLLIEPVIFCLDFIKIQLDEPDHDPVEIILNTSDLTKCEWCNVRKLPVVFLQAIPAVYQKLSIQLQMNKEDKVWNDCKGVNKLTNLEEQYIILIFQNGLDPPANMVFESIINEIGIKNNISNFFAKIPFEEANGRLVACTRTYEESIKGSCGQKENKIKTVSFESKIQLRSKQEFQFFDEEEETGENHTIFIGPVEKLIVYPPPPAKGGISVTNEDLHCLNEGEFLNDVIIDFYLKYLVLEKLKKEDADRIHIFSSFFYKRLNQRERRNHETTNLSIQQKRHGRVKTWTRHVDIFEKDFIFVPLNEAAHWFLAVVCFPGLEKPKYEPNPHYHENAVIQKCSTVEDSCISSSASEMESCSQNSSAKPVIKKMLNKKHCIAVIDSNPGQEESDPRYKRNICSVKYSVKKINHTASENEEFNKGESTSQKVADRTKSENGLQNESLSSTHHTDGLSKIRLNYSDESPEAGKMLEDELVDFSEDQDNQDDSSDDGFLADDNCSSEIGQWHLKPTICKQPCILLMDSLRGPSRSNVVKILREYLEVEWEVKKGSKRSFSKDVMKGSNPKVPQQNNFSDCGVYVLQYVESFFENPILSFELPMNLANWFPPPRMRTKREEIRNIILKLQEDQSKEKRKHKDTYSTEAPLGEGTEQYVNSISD
# [3] = target: T4, Sentrin-specific protease 8 (Homo sapiens, UniProt Q96LD8); assay type: functional;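 note: luminescence read-out of SENP8 inhibition, dose-response confirmation following an ultra-high-throughput screen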
# T4 sequence (Q96LD8 whole entry): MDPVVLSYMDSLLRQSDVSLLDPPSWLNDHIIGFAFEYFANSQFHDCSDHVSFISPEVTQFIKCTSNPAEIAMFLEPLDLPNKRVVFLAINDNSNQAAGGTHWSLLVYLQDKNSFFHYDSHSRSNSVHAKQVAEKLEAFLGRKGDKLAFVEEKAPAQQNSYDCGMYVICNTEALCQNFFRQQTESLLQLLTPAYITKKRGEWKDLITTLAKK
# HEK293 = assay: EBV LMP1 TES2 canonical NF-kB signalling blockers – cell-based, HEK293, luciferase, cherry-pick, dose response (AID 588343); assay type: functional; conditions: Homo sapiens
# [4] = A549 cell cytotoxicity, dose response, cytotoxicity control, plate reader, cherry-pick, antagonist series (AID 743412); assay type: functional, cell-based
# [5] = blockers of bursicon-stimulated LGR2 cAMP reporter – cell-based, HEK293, CRE-luciferase reporter, cherry pick, set 2, dose response (AID 743343); assay type: functional;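 note: transfected cells were stimulated with diluted bursicon conditioned medium after compound addition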
# [6] = blockade of melanocortin 4 receptor signaling – cell-based, plate reader, cherry pick, counter-screen for LGR2 antagonist project, dose response (AID 743444); assay type: functional;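 note: transfected HEK 293 cells stimulated with alpha-MSH peptide; potency of inhibitors of the alpha-MSH evoked signal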
# [7] = HGIII-sPLA2 enzyme inhibition potency – biochemical, QFRET, IC50, dose response (AID 743457);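 note: green fluorescence rise as the enzyme cleaves BODIPY PC-A2 in liposomes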
# [8] = target: T5, Fructose-bisphosphate aldolase (Mycobacterium tuberculosis, UniProt P9WQA3); assay: Fluorescence-based biochemical high throughput dose response assay for inhibitors of the fructose-bisphosphate aldolase (FBA) of M. tuberculosis.; assay type: functional
# T5 sequence (P9WQA3 whole entry): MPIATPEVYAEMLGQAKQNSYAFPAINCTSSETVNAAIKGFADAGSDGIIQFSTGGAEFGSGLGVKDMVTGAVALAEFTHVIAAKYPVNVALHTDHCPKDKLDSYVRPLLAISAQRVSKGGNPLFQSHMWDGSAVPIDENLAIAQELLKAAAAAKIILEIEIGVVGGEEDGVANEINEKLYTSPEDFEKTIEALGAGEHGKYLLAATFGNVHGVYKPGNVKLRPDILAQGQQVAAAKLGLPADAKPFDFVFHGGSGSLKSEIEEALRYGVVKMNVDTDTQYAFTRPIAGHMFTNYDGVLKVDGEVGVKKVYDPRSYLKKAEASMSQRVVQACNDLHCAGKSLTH
# [9] = viability of uninfected HEp-2 cells – cell-based, HTS, cytotoxicity control for RSV inhibitor project, dose response (AID 2410); assay type: functional; conditions: human respiratory syncytial virus
# [10] = microbe, parasite or virus in culture; assay type: functional; conditions: Mycobacterium tuberculosis
# [11] = general mammalian cell viability loss – inhibitor set, cherry-pick, set 2, cytotoxicity control for miR-122 modulator project, dose response (AID 720697); assay type: functional, cell-based
# [12] = viability loss in HEK293 cells – cell-based, plate reader, cherry-picked samples, cytotoxicity control, dose response (AID 743446); assay type: functional
# [13] = target: SWI/SNF-related matrix-associated actin-dependent regulator of chromatin subfamily A member 2 (Homo sapiens, UniProt P51531); assay: Luminescence-based cell-based high throughput dose response assay to identify activators of the function of SWI/SNF related, matrix associated, actin dependent regulator of chromatin, subfamily a, member 2 (SMARCA2, BRM).; assay type: functional
# SWI/SNF-related matrix-associated actin-dependent regulator of chromatin subfamily A member 2, sequence (P51531 whole entry): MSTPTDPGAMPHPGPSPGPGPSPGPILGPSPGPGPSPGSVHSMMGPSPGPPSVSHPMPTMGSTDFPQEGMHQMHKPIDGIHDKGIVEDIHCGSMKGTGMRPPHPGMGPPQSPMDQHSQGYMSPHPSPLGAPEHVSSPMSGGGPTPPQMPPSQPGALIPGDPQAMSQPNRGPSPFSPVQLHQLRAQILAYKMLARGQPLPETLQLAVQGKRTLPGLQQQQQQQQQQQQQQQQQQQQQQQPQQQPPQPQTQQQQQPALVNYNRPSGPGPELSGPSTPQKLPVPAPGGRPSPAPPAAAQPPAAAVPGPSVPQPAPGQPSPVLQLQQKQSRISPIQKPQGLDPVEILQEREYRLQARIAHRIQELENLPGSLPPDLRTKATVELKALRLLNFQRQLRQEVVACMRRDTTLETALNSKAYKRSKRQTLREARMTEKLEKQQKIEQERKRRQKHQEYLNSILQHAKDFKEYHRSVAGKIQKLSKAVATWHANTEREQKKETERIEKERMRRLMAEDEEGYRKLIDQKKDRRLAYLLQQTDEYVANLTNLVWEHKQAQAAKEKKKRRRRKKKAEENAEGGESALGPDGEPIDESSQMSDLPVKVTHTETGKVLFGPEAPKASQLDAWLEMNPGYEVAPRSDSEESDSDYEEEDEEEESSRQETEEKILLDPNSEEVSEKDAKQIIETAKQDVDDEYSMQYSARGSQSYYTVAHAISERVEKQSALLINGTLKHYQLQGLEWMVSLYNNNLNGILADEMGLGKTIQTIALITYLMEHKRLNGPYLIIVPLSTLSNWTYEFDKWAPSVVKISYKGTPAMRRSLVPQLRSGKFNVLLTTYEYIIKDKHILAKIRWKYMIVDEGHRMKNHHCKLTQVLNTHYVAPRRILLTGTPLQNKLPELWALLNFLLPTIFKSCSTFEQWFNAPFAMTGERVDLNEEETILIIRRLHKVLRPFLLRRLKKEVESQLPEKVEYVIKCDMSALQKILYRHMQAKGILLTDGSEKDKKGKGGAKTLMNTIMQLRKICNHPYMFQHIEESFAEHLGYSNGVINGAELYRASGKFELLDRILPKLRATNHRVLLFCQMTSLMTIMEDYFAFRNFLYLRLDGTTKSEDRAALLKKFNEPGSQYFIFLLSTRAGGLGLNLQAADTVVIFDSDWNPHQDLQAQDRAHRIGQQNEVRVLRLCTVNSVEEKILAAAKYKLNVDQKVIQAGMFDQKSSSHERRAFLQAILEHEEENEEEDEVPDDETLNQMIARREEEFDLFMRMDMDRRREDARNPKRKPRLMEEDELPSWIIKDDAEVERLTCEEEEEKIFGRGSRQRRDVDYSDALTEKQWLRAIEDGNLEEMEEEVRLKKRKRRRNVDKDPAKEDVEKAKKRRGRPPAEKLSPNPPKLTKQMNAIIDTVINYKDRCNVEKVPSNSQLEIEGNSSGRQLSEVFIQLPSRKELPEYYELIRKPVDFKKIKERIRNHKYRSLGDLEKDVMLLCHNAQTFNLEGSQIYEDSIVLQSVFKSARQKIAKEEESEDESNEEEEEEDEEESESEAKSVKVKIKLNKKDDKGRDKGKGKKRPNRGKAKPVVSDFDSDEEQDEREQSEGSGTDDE
# [14] = Counterscreen for activators of the function of SWI/SNF related, matrix associated, actin dependent regulator of chromatin, subfamily a, member 2 (SMARCA2, BRM): Luminescence-based cell-based high throughput dose response assay to identify non-selective compounds using the VP16 reporter assay.; assay type: functional
compound,measurement,setting,value
O=C(Nc1ccccc1)N1CC=C(c2ccc(F)cc2)CC1,IC50,Caspase-3,34.3 µM (active)
same,IC50,[1],14.9 µM (active)
same,IC50,[2],54.5 µM (active)
same,IC50,[3],86.8 µM (active)
COc1ccc(NC(=O)c2ccc(-c3ccccc3Cl)o2)cc1,IC50,Caspase-3,16.2 µM (active)
same,IC50,[1],4.54 µM (active)
same,IC50,[2],4.21 µM (active)
same,IC50,[3],> 100 µM (inactive)
Cc1ccc(C(=O)Nc2ccc3c(c2)OCCO3)cc1,AC50,HEK293,2.05 µM (active)
same,AC50,[4],> 52 µM (inactive)
same,AC50,[5],2.67 µM (active)
same,AC50,[6],4.05 µM (active)
Sc1nnc(CCc2ccccc2)n1-c1ccc(Cl)cc1,IC50,[7],> 122 µM (inactive)
O=C1C(=O)N(c2ccccc2)C(c2ccccc2)C1c1ccccc1 (stereo not drawn),IC50,[8],> 9.99 µM (inactive)
Cc1nc2cc(-c3cccs3)nn2c(O)c1C,IC50,[8],> 3.33 µM (active)
O=C1NC(=O)/C(=C/c2ccc(-c3cccc([N+](=O)[O-])c3)o2)S1,CC50,[9],1.93 µM (active)
same,CC50,[10],> 40 µM (active)
same,IC50,Caspase-3,13.6 µM (active)
same,IC50,[1],50.7 µM (active)
same,IC50,[2],17 µM (active)
same,IC50,[3],55.7 µM (active)
CC(C)NC(=O)N1[C@H](CO)[C@@H](c2ccccc2)[C@@H]1CN(C)C(=O)c1cccnc1,AC50,[11],0.538 µM (active)
COCC(=O)N1CCCCN2[C@H](CO)[C@H](c3ccc(-c4cccc(C)c4)cc3)[C@@H]2C1,AC50,[4],> 52 µM (inactive)
same,AC50,[5],18 µM (active)
same,AC50,[6],23.6 µM (active)
same,AC50,[12],> 52 µM (inactive)
CC/N=c1\sc(C(=O)OC)cc(=O)n1CC,EC50,[13],> 91.2 µM (inactive)
same,EC50,[14],> 91.2 µM (inactive)
